From article PMC9012168 (BioProcess international, 2018)
Starred links: 1 amine or outer side, 2 acyl side, 3 side chain; linkers in the order of their positions; H or OH if unused. Positions of bridges follow the written chain, without caps; N, C: chain ends. Non-standard residues stand in square brackets, D forms with d. Residues, ends and D or L forms follow the SMILES beside them. Chains are numbered I, II in the order given. Actinocin(9to1) = Cc1c2oc3c(C)ccc(C(=O)[*:1])c3nc-2c(C(=O)[*:2])c(N)c1=O; NMeV = CN[C@H](C(=O)O)C(C)C; Sar = CNCC(=O)O

Assay: in vitro
Type: cell-based
Conditions: human

Cc1c2oc3c(C)ccc(C(=O)N[C@@H]4C(=O)N[C@H](C(C)C)C(=O)N5CCC[C@H]5C(=O)N(C)CC(=O)N(C)[C@@H](C(C)C)C(=O)O[C@@H]4C)c3nc-2c(C(=O)N[C@@H]2C(=O)N[C@H](C(C)C)C(=O)N3CCC[C@H]3C(=O)N(C)CC(=O)N(C)[C@@H](C(C)C)C(=O)O[C@@H]2C)c(N)c1=O [dactinomycin] (I: T[dV]P[Sar][NMeV] / II: T[dV]P[Sar][NMeV]; ester I:1-I:C, II:1-II:C; linker I:N-II:N via Actinocin(9to1))
IC50: 8.5 nM
